Measured values as given in patent US9732164B2, “Chitosan-derivative compounds and methods of controlling microbial populations” (SYNEDGEN, INC., priority 2006, dated 2017).

Test system: HeLa cells
Settings: human, 48 h, 1 micromolar

CC(=O)O[C@H]1C(=O)[C@@]2(C)[C@H]([C@H](OC(=O)c3ccccc3)[C@]3(O)C[C@H](OC(=O)[C@H](O)[C@@H](NC(=O)c4ccccc4)c4ccccc4)C(C)=C1C3(C)C)[C@]1(OC(C)=O)CO[C@@H]1C[C@@H]2O [taxol]
HeLa cells killed: ~100%
